{"source": "patent US5885834A", "about": "“Antisense oligodeoxynucleotide against phosphodiesterase” (priority 1997, dated 1999)", "type_in_all_cases": "cell-based, human", "key": {"isolated, quiescent HPBL": {"test_system": "isolated, quiescent HPBL", "assay": "TUNEL assay of apoptosis, flow cytometry, quiescent HPBL", "settings": "isolated, quiescent HPBL in culture, ODN added", "source_text": "Nevertheless, the effects of AS ODNs on HPBL can still be tested by quantifying and comparing the percentage of cells undergoing apoptosis in the presence and absence of the AS ODN. Apoptosis detected by examining endonuclease-digested DNA, commonly referred to as the DNA laddering technique, has been employed and the results therefrom are set forth in FIG. 5. However, we prefer to use a TUNEL assay, an acronym for terminal deoxynucleotidyl transferase (TdT)-mediated dUTP nick end labeling, which more readily allows quantitation of the percentage of cells undergoing apoptosis. The principle of the TUNEL assay is that endonuclease digestion during apoptosis results in the formation of 3'-OH ends in the digested DNA. The digested DNA in the apoptotic cells can then be labeled with fluorescein by catalytically incorporating fluorescein-12-dUTP at the 3'-OH ends using the TdT enzyme. Fluorescence can then be quantitated by flow cytometry, using a fluorescence activated cell sorter (FACS), which would give a measure of the number of cells undergoing apoptosis. An example of the appearance of a population of fluorescein labeled apoptotic cells, as evidenced by flow cytometry, following TUNEL assay labeling of the cells, is shown in FIGS. 6A-C. Cells were then cultured for 3 days with 10 μg/ml PHA-P (Sigma), in the absence of any ODN (FIG. 6A), in the presence of 30 μM NS ODN (FIG. 6B), or in the presence of 30 μM AS ODN (FIG. 6C). Cells were then collected by centrifugation and fluorescein labeled by the TUNEL assay using the Promega Apoptosis Detection System. Flow cytometry was performed on a Beckton Dickinson FACScan by the FACS facility.\nThe procedure for analyzing apoptosis by the TUNEL method uses either an In Situ Cell Death Kit, Fluorescein from Boehringer Mannheim or an Apoptosis Detection System, Fluorescein from Promega and follows the protocols of the manufacturers. The data in FIGS. 6 and 7 was obtained using the manufacturer's protocol for the Apoptosis Detection System, Fluorescein from Promega. […]"}, "[1]": {"test_system": "β-actin mRNA in RPMI 8392 cells", "assay": "Quantitative RT-PCR of β-actin mRNA (control gene) after ODN treatment", "settings": "10 or 30 μM ODN, 1 and 2 days", "source_text": "This is usually determined by looking at the reduction or disappearance of the protein product, either by selective measurement of an enzymatic activity of the protein, where applicable, or by immunoquantitation with specific antibodies by Western blot or ELISA techniques. Also, when PO or PS ODNs are used, which are capable of activating RNase H activity, it is expected that the mRNA of the targeted gene would be down regulated, most of the time, along with the protein product, and this can be readily tested by Northern blot analysis or PCR techniques. Using quantitative RT-PCR with primers specific for PDE1B1, we examined the RPMI 8392 cells for the presence of PDE1B1 mRNA. […] NS ODN, at these concentrations, had no effect on the expression of PDE1B1 mRNA. […]\nHPBL were isolated from a normal human donor and placed in culture with (+PHA) or without (-PHA) phytohemagglutinin for 3 days. Quantitative RT-PCR was performed with 2 μg of HPBL RNA, using reagents and protocol from GIBCO/BRL. […]\n(§1) Using quantitative RT-PCR, the effect of AS ODN and NS ODN on the level of mRNA for PDE1B1 in RPMI 8392 cells was examined. Quantitative RT-PCR was used to determine the relative amounts of β-actin and PDE1B1 mRNAs present in RPMI 8392 cells after 1 and 2 days in culture with 10 μM and 30 μM AS ODN (AS) and NS ODN (NS). […]"}, "[2]": {"test_system": "PDE1B1 mRNA in RPMI 8392 cells", "assay": "Quantitative RT-PCR of PDE1B1 mRNA after ODN treatment", "settings": "10 or 30 μM ODN", "source_text": "This is usually determined by looking at the reduction or disappearance of the protein product, either by selective measurement of an enzymatic activity of the protein, where applicable, or by immunoquantitation with specific antibodies by Western blot or ELISA techniques. Also, when PO or PS ODNs are used, which are capable of activating RNase H activity, it is expected that the mRNA of the targeted gene would be down regulated, most of the time, along with the protein product, and this can be readily tested by Northern blot analysis or PCR techniques. Using quantitative RT-PCR with primers specific for PDE1B1, we examined the RPMI 8392 cells for the presence of PDE1B1 mRNA. […] NS ODN, at these concentrations, had no effect on the expression of PDE1B1 mRNA. […] In this connection, the expression of β-actin is unaffected by cAMP and, therefore, β-actin mRNA levels were used as a control. Another gene that is often also used for control measurements for this purpose is that of glyceraldehyde-3-phosphate dehydrogenase (G3PDH).\nHPBL were isolated from a normal human donor and placed in culture with (+PHA) or without (-PHA) phytohemagglutinin for 3 days. Quantitative RT-PCR was performed with 2 μg of HPBL RNA, using reagents and protocol from GIBCO/BRL. Degenerate 23 nt primers were synthesized based on reported sequences for PDE1B1. The sequence of the forward primer (Primer 1) corresponds to nt -34 to -12 and the sequence of the reverse primer (Primer 2) is complementary to nt 277 to 299 of the PDE1B1 cDNA. […]\nas §1"}}, "note": "“Also recorded” adds a separate entry of the source."}
{"substance": "5'-TACGTGAGGCACCTACGC-3' (phosphorothioate, further chemistry not given here) [NS ODN, control phosphorothioate nonsense ODN, same base composition as the AS ODN in random, scrambled order]", "values": [{"measurement": "Rate of formation of apoptotic HPBL cells (TUNEL)", "setting": "isolated, quiescent HPBL", "value": "no different from control"}, {"measurement": "Levels of β-actin mRNA", "setting": "[1]", "value": "no effect; also recorded: unchanged"}, {"measurement": "Level of PDE1B1 mRNA expression", "setting": "[2]; 1 and 2 days", "value": "no effect"}]}
{"substance": "5'-GGACAGCTCCATGCTCAG-3' (phosphorothioate, further chemistry not given here) [AS ODN, 18 nt phosphorothioate antisense oligodeoxynucleotide targeted against the translation initiation region of PDE1B1]", "values": [{"measurement": "Rate of formation of apoptotic HPBL cells (TUNEL)", "setting": "isolated, quiescent HPBL", "value": "unchanged"}, {"measurement": "Levels of β-actin mRNA", "setting": "[1]", "value": "unaltered; also recorded: unchanged"}, {"measurement": "Level of PDE1B1 mRNA expression", "setting": "[2]; 1 day", "value": "diminished"}, {"measurement": "Level of PDE1B1 mRNA expression", "setting": "[2]; 2 days", "value": "absent; also recorded: almost undetectable"}]}
